Measured values reported in patent US9783536B2, “Nitrogen-containing heterocyclic compound or salt thereof” (FUJIFILM Corporation, priority 2013, dated 2017).
Where a name gives a salt, the structure may show the parent alone. Read-outs that look alike come from different tables or passages of the source.

Experiments:
[1] = target: T1, human PI3Kα protein (Homo sapiens, UniProt P42336); test: PI3Kα enzyme assay (ADP-Glo); assay type: biochemical; conditions: read-out: PI3Kα enzyme inhibitory activity
T1 construct: purchased Carna Biosciences, Inc; host or cells: baculovirus expression system
T1 sequence (P42336 whole entry): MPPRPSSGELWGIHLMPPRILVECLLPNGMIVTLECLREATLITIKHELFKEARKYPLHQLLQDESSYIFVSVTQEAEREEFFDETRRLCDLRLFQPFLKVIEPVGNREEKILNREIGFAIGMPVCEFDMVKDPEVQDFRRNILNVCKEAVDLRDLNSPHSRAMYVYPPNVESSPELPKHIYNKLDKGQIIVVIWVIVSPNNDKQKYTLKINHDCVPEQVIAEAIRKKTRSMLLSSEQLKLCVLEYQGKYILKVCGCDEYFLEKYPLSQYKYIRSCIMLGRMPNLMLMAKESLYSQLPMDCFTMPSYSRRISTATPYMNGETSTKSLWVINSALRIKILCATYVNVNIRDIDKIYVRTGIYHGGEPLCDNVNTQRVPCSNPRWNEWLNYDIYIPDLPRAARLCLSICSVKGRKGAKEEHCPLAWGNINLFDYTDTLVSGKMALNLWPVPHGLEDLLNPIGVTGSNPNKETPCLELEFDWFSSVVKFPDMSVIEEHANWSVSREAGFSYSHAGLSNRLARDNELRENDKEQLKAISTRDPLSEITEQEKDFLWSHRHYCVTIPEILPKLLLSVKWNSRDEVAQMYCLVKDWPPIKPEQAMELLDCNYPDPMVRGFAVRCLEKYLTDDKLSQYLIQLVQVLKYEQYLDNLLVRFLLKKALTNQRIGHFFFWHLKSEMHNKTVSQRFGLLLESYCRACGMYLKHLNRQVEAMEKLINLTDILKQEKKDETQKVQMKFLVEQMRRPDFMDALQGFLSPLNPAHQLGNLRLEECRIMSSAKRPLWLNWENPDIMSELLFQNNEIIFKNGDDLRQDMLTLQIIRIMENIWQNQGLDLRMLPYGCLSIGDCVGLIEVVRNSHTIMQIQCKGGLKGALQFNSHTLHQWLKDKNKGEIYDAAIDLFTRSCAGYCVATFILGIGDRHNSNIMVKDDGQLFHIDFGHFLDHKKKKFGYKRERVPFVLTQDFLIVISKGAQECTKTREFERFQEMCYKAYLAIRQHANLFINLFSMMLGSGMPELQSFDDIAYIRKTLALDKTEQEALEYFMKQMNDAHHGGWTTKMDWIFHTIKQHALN
T1 sequence (P27986 whole entry partner): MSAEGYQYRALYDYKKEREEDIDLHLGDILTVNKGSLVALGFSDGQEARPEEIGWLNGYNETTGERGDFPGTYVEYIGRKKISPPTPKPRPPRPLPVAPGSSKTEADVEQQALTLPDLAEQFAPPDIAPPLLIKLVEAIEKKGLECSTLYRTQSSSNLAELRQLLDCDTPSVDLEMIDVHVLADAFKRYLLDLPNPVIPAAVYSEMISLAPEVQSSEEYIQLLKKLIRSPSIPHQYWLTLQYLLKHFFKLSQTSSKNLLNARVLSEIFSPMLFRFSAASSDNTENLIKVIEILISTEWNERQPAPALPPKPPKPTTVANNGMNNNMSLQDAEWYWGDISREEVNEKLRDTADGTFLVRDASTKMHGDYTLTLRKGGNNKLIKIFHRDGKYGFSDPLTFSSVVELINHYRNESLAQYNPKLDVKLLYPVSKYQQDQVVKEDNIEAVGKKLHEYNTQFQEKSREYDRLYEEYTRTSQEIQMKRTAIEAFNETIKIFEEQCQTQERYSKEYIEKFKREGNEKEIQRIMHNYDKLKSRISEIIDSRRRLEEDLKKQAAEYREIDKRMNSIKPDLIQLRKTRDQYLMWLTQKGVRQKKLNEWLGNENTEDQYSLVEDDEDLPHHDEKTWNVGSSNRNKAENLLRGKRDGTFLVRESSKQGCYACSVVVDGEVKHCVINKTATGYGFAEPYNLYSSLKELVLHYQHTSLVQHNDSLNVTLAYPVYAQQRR
How it was run: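 Biotinylated human PI3Kα (baculovirus-expressed, 4.5 nmol/L) pre-incubated 15 min with compound in Tris-HCl pH 7.5, MgCl2, BSA; reaction 60 min at 25° C with 50 μmol/L PIP2 and 100 μmol/L ATP final. ADP quantified by ADP-Glo luminescence; IC50 calculated.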

[2] = target: T2, GST fusion human ERK2 protein (Homo sapiens, UniProt P28482); test: ERK2 enzyme assay (1); assay type: biochemical; conditions: read-out: ERK2 enzyme inhibitory activity (1)
T2 construct: purchased Carna Biosciences, Inc; host or cells: E. coli expression system
T2 sequence (P28482 whole entry, the tested form may be a part): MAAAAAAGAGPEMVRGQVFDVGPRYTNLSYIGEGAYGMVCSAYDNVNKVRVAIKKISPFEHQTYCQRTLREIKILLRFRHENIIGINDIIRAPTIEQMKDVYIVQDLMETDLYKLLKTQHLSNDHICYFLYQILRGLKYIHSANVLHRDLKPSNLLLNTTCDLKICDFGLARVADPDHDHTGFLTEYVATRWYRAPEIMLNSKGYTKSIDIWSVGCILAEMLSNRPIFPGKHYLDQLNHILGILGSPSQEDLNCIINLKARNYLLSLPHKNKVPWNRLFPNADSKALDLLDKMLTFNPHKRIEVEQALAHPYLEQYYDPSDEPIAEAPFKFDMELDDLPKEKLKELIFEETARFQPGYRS
How it was run: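 Enzyme (2.5 nmol/L, E. coli-expressed) preincubated with compound 15 min at room temperature in HEPES/MgCl2/DTT/Brij35 buffer, pH 7.5; reaction with 4.25 μmol/L FL-Peptide 8 and 43.1 μmol/L ATP for 120 min at 25 °C. Phosphorylated peptide fraction quantified by mobility-shift separation after EDTA stop; IC50 calculated.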

[3] = 4.5 nmol/L PI3Kα, PIP2 50 μmol/L, ATP 100 μmol/L
[4] = 2.5 nmol/L ERK2, ATP 43.1 μmol/L

COc1cccc(Nc2cnc3ccc(Nc4nnc(C5CCCC5)s4)nc3c2)c1 [Example 0220, N^2-(5-cyclopentyl-1,3,4-thiadiazol-2-yl)-N^7-(3-methoxyphenyl)-1,5-naphthyridine-2,7-diamine]
IC50 [1]: < 1000 nM | IC50 ([2]; ERK2 enzyme assay (1)): 1000 to 10000 nM

c1ncc(OCCN2CCOCC2)cc1Nc1cnc2ccc(Nc3nnc(C4CCCC4)s3)nc2c1 [Example 0082]
IC50 [1, 3]: < 1000 nM | IC50 [2, 4]: < 1000 nM

c1ccc(CNc2cnc3ccc(Nc4nnc(C5CCCC5)s4)nc3c2)nc1 [Example 0068]
IC50 [1, 3]: 1000 to 10000 nM | IC50 [2, 4]: < 1000 nM

CN(C)CCn1cc(-c2cnc3ccc(Nc4nnc(C5CCCC5)s4)nc3c2)cn1 [Example 0304, 5-Cyclopentyl-N-(7-(1-(2-(dimethylamino)ethyl)-1H-pyrazol-4-yl)-1,5-naphthyridin-2-yl)-1,3,4-thiadiazole-2-amine]
IC50 [1]: < 1000 nM | IC50 ([2]; ERK2 enzyme assay (1)): < 1000 nM

CC(C)c1nnc(Nc2ccc3ncc(-c4cn(C)nc4C(C)C)cc3n2)s1 [Example 0125]
IC50 [1, 3]: < 1000 nM | IC50 [2, 4]: < 1000 nM

Cn1cc(-c2cnc3ccc(Nc4nnc(Cc5ccccc5)s4)nc3c2)cn1 [Example 0165, 5-benzyl-N-(7-(1-methyl-1H-pyrazol-4-yl)-1,5-naphthyridin-2-yl)-1,3,4-thiadiazole-2-amine]
IC50 [1, 3]: 10000 to 50000 nM | IC50 [2, 4]: < 1000 nM

OCc1nnc(Nc2ccc3ncc(-c4cnn(CCCN5CCCC5)c4)cc3n2)s1 [Example 0239, (5-((7-(1-(3-(Pyrrolidin-1-yl)propyl)-1H-pyrazol-4-yl)-1,5-naphthyridin-2-yl)amino)-1,3,4-thiadiazol-2-yl)methanol]
IC50 [1]: < 1000 nM | IC50 ([2]; ERK2 enzyme assay (1)): < 1000 nM

Cc1cnnc(Nc2ccc3ncc(-c4cn(C)nc4CO[Si](C)(C)C(C)(C)C)cc3n2)c1 [Example 0396, 7-(3-(((tert-butyldimethylsilyl)oxy)methyl)-1-methyl-1H-pyrazol-4-yl)-N-(5-methylpyridazin-3-yl)-1,5-naphthyridine-2-amine]
IC50 [1]: 10000 to 50000 nM | IC50 ([2]; ERK2 enzyme assay (1)): < 1000 nM

CC(C)c1cnnc(Nc2ccc3ncc(-c4cnn(CCn5ccnc5)c4)cc3n2)c1 [Example 0380, 7-(1-(2-(1H-imidazol-1-yl)ethyl)-1H-pyrazol-4-yl)-N-(5-isopropylpyridazin-3-yl)-1,5-naphthyridine-2-amine]
IC50 [1]: < 1000 nM | IC50 ([2]; ERK2 enzyme assay (1)): < 1000 nM

Clc1cc(Nc2cnc3ccc(Nc4nnc(C5CCCC5)s4)nc3c2)cnc1-n1cccn1 [Example 0078]
IC50 [1, 3]: < 1000 nM | IC50 [2, 4]: < 1000 nM

CC(C)c1cnnc(Nc2ccc3ncc(Nc4cncnc4)cc3n2)c1 [Example 0387, N^2-(5-isopropylpyridazin-3-yl)-N^7-(pyrimidin-5-yl)-1,5-naphthyridine-2,7-diamine]
IC50 [1]: < 1000 nM | IC50 ([2]; ERK2 enzyme assay (1)): < 1000 nM

CC(C)(C)c1nnc(Nc2ccc3ncc(-c4cnn(CCCN5CCCC5)c4)cc3n2)s1 [Example 0366]
IC50 [1]: < 1000 nM | IC50 ([2]; ERK2 enzyme assay (1)): < 1000 nM

c1ccc(-c2cnnc(Nc3ccc4ncc(-c5cnn(CCCN6CCCC6)c5)cc4n3)c2)cc1 [Example 0297, N-(5-phenylpyridazin-3-yl)-7-(1-(3-(pyrrolidin-1-yl)propyl)-1H-pyrazol-4-yl)-1,5-naphthyridine-2-amine]
IC50 [1]: < 1000 nM | IC50 ([2]; ERK2 enzyme assay (1)): < 1000 nM

c1nc2ccc(Nc3nnc(C4CCCC4)s3)nc2cc1N1CCNCC1 [Example 0055]
IC50 [1, 3]: 1000 to 10000 nM | IC50 [2, 4]: < 1000 nM

Cn1cc(-c2cnc3ccc(Nc4cccnc4)nc3c2)cn1 [Example 0038]
IC50 [1, 3]: 10000 to 50000 nM | IC50 [2, 4]: 1000 to 10000 nM

Oc1cnc2ccc(Nc3nnc(C4CCCC4)s3)nc2c1 [Example 0040, 6-((5-cyclopentyl-1,3,4-thiadiazol-2-yl)amino)-1,5-naphthyridin-3-ol hydrochloride]
IC50 [1, 3]: 10000 to 50000 nM | IC50 [2, 4]: < 1000 nM

CC(C)(C)OC(=O)N1CCN(CCn2cc(-c3cnc4ccc(Nc5nnc(S(=O)(=O)Nc6ccccc6)s5)nc4c3)cn2)CC1 [Example 0180, tert-Butyl 4-(2-(4-(6-((5-(N-phenylsulfamoyl)-1,3,4-thiadiazol-2-yl)amino)-1,5-naphthyridin-3-yl)-1H-pyrazol-1-yl)ethyl)piperazine-1-carboxylate]
IC50 [1, 3]: 1000 to 10000 nM | IC50 [2, 4]: < 1000 nM

CCCc1nn(CCCN2CCCC2)cc1-c1cnc2ccc(Nc3cc(C(C)C)cnn3)nc2c1 [Example 0391, N-(5-isopropylpyridazin-3-yl)-7-(3-propyl-1-(3-(pyrrolidin-1-yl)propyl)-1H-pyrazol-4-yl)-1,5-naphthyridine-2-amine]
IC50 [1]: < 1000 nM | IC50 ([2]; ERK2 enzyme assay (1)): < 1000 nM

Cc1nnc(Nc2ccc3ncc(N(C)c4cn[nH]c4)cc3n2)s1 [Example 0183, N^7-methyl-N^2-(5-methyl-1,3,4-thiadiazol-2-yl)-N^7-(1H-pyrazol-4-yl)-1,5-naphthyridine-2,7-diamine]
IC50 [1, 3]: 1000 to 10000 nM | IC50 [2, 4]: < 1000 nM

Nc1nnc(Nc2ccc3ncc(-c4cnn(CCN5CCOCC5)c4)cc3n2)s1 [Example 0254, N^2-(7-(1-(2-morpholinoethyl)-1H-pyrazol-4-yl)-1,5-naphthyridin-2-yl)-1,3,4-thiadiazole-2,5-diamine]
IC50 [1]: < 1000 nM | IC50 ([2]; ERK2 enzyme assay (1)): < 1000 nM

c1n[nH]cc1Nc1cnc2ccc(Nc3nnc(C4CCCC4)s3)nc2c1 [Example 0175, N^2-(5-cyclopentyl-1,3,4-thiadiazol-2-yl)-N^7-(1H-pyrazol-4-yl)-1,5-naphthyridine-2,7-diamine]
IC50 [1, 3]: < 1000 nM | IC50 [2, 4]: < 1000 nM

Cn1cc(-c2cnc3ccc(Nc4nnc[nH]4)nc3c2)cn1 [Example 0300, 7-(1-Methyl-1H-pyrazol-4-yl)-N-(4H-1,2,4-triazol-3-yl)-1,5-naphthyridine-2-amine]
IC50 [1]: 1000 to 10000 nM | IC50 ([2]; ERK2 enzyme assay (1)): < 1000 nM

CN1CCN(c2cncc(Nc3cnc4ccc(Nc5nnc(C6CCCC6)s5)nc4c3)c2)CC1 [Example 0102]
IC50 [1, 3]: < 1000 nM | IC50 [2, 4]: < 1000 nM

CC(C)c1nnc(Nc2ccc3nccc(-c4ccc(C(N)=O)cc4)c3n2)s1 [Example 0288]
IC50 [1]: < 1000 nM | IC50 ([2]; ERK2 enzyme assay (1)): < 1000 nM

CC(C)c1nnc(Nc2ccc3nccc(-c4cccnc4)c3n2)s1 [Example 0268, 5-isopropyl-N-(8-(pyridin-3-yl)-1,5-naphthyridin-2-yl)-1,3,4-thiadiazole-2-amine]
IC50 [1]: < 1000 nM | IC50 ([2]; ERK2 enzyme assay (1)): < 1000 nM

c1nc2ccc(Nc3ncc(C4CCCC4)s3)nc2cc1-c1cnn(CCCN2CCCC2)c1 [Example 0126, 5-cyclopentyl-N-(7-(1-(3-(pyrrolidin-1-yl)propyl)-1H-pyrazol-4-yl)-1,5-naphthyridin-2-yl)thiazole-2-amine]
IC50 [1, 3]: < 1000 nM | IC50 [2, 4]: < 1000 nM

CC(C)OCc1nn(C)cc1-c1cnc2ccc(Nc3nnc(C(C)C)s3)nc2c1 [Example 0146]
IC50 [1, 3]: < 1000 nM | IC50 [2, 4]: < 1000 nM

c1nc2ccc(Nc3nnc(C4CCCC4)s3)nc2cc1C1CCNCC1 [Example 0332, 5-Cyclopentyl-N-(7-(piperidin-4-yl)-1,5-naphthyridin-2-yl)-1,3,4-thiadiazole-2-amine hydrochloride]
IC50 [1]: 10000 to 50000 nM | IC50 ([2]; ERK2 enzyme assay (1)): < 1000 nM

Cn1cc(-c2cnc3ccc(Nc4ccc(NS(C)(=O)=O)nn4)nc3c2)cn1 [Example 0409]
IC50 [1]: < 1000 nM | IC50 ([2]; ERK2 enzyme assay (1)): 1000 to 10000 nM

CC(C)(C)c1cncc(Nc2cnc3ccc(Nc4nnc(C5CCCC5)s4)nc3c2)c1 [Example 0103]
IC50 [1, 3]: < 1000 nM | IC50 [2, 4]: < 1000 nM

O=C(CO)N1CCN(c2cnc3ccc(Nc4nnc(C5CCCC5)s4)nc3c2)CC1 [Example 0058, 1-(4-(6-((5-cyclopentyl-1,3,4-thiadiazol-2-yl)amino)-1,5-naphthyridin-3-yl)piperazin-1-yl)-2-hydroxyethanone]
IC50 [1, 3]: 1000 to 10000 nM | IC50 [2, 4]: < 1000 nM

Cn1cc(-c2cnc3ccc(Nc4nccs4)nc3c2)cn1 [Example 0029]
IC50 [1, 3]: < 1000 nM | IC50 [2, 4]: < 1000 nM

COC[C@@H]1CCCN1c1cnc2ccc(Nc3nnc(C4CCCC4)s3)nc2c1 [Example 0061]
IC50 [1, 3]: 1000 to 10000 nM | IC50 [2, 4]: < 1000 nM

CN(c1cn[nH]c1)c1cnc2ccc(Nc3nnc(C4CCCC4)s3)nc2c1 [Example 0196, N^2-(5-cyclopentyl-1,3,4-thiadiazol-2-yl)-N^7-methyl-N^7-(1H-pyrazol-4-yl)-1,5-naphthyridine-2,7-diamine]
IC50 [1, 3]: 1000 to 10000 nM | IC50 [2, 4]: < 1000 nM

CC(C)c1cnnc(Nc2ccc3ncc(-c4cccnc4)cc3n2)c1 [Example 0407]
IC50 [1]: 1000 to 10000 nM | IC50 ([2]; ERK2 enzyme assay (1)): < 1000 nM

CC(C)Cc1cnc(Nc2ccc3ncc(-c4cnn(C)c4)cc3n2)s1 [Example 0143, 5-isobutyl-N-(7-(1-methyl-1H-pyrazol-4-yl)-1,5-naphthyridin-2-yl)thiazole-2-amine]
IC50 [1, 3]: 1000 to 10000 nM | IC50 [2, 4]: < 1000 nM

CC(C)c1cnnc(Nc2ccc3ncc(-c4cnn(CCCN(C)C)c4)cc3n2)c1 [Example 0020, 7-(1-(3-(Dimethylamino)propyl)-1H-pyrazol-4-yl)-N-(5-isopropylpyridazin-3-yl)-1,5-naphthyridine-2-amine]
IC50 [1, 3]: < 1000 nM | IC50 [2, 4]: < 1000 nM

CCOC(=O)C1CCCN(c2cnc3ccc(Nc4nnc(C5CCCC5)s4)nc3c2)C1 (centres unmarked) [Example 0056]
IC50 [1, 3]: 10000 to 50000 nM | IC50 [2, 4]: < 1000 nM

CN(C)CC(C)(C)Cn1cc(-c2cnc3ccc(Nc4nnc(C5CCCC5)s4)nc3c2)cn1 [Example 0317, 5-Cyclopentyl-N-(7-(1-(3-(dimethylamino)-2,2-dimethylpropyl)-1H-pyrazol-4-yl)-1,5-naphthyridin-2-yl)-1,3,4-thiadiazole-2-amine]
IC50 [1]: < 1000 nM | IC50 ([2]; ERK2 enzyme assay (1)): < 1000 nM

COc1ccccc1Nc1ccnc2ccc(Nc3nnc(C(C)C)s3)nc12 [Example 0011]
IC50 [1, 3]: < 1000 nM | IC50 [2, 4]: 1000 to 10000 nM
